According to patent publication US10085448B2, “Azoline compounds substituted by a carbocyclic condensed ring system” (BASF SE, priority 2014, dated 2018):
Where two headings read alike, the source gives them in different places.

Experiments:
Assay type in all cases: in vivo
[1] = tested on: Diamond Back Moth (Plutella xylostella); test: Diamond back moth leaf-dip test; conditions: read-out: mortality in comparison with untreated controls
Procedure: B.1 Diamond Back Moth (Plutella xylostella)
The active compound was dissolved at the desired concentration in a mixture of 1:1 (vol:vol) distilled water: aceteone. Surfactant (Kinetic HV) was added at a rate of 0.01% (vol/vol).The test solution was prepared at the day of use.
Leaves of cabbage were dipped in test solution and air-dried. Treated leaves were placed in petri dishes lined with moist filter paper and inoculated with ten 3rd instar larvae. Mortality was recorded 72 hours after treatment. Feeding damages were also recorded using a scale of 0-100%.

[2] = tested on: Green Peach Aphid (Myzus persicae); test: Green peach aphid systemic artificial diet test; conditions: 72 h, read-out: mortality in comparison with untreated controls
Excerpt: B.2 Green Peach Aphid (Myzus persicae)
For evaluating control of green peach aphid (Myzus persicae) through systemic means the test unit consisted of 96-well-microtiter plates containing liquid artificial diet under an artificial membrane.
The compounds were formulated using a solution containing 75% v/v water and 25% v/v DMSO. Different concentrations of formulated compounds were pipetted into the aphid diet, using a custom built pipetter, at two replications.
After application, 5-8 adult aphids were placed on the artificial membrane inside the microtiter plate wells. The aphids were then allowed to suck on the treated aphid diet and incubated at about 23±1° C. and about 50±5% relative humidity for 3 days. Aphid mortality and fecundity was then visually assessed.

[3] = tested on: Vetch Aphid (Megoura viciae); test: Vetch aphid leaf disk test; conditions: foliar, 120 h, read-out: mortality in comparison with untreated controls
Procedure: B.3 Vetch Aphid (Megoura viciae)
For evaluating control of vetch aphid (Megoura viciae) through contact or systemic means the test unit consisted of 24-well-microtiter plates containing broad bean leaf disks.
The compounds were formulated using a solution containing 75% v/v water and 25% v/v DMSO. Different concentrations of formulated compounds were sprayed onto the leaf disks at 2.5 μl, using a custom built micro atomizer, at two replications.
After application, the leaf disks were air-dried and 5-8 adult aphids placed on the leaf disks inside the microtiter plate wells. The aphids were then allowed to suck on the treated leaf disks and incubated at about 23±1° C. and about 50±5% relative humidity for 5 days. Aphid mortality and fecundity was then visually assessed.

[4] = tested on: Tobacco Budworm (Heliothis virescens); test: Tobacco budworm insect diet test; conditions: 120 h, read-out: mortality in comparison with untreated controls
Procedure: B.4 Tobacco Budworm (Heliothis virescens)
For evaluating control of tobacco budworm (Heliothis virescens) the test unit consisted of 96-well-microtiter plates containing an insect diet and 15-25 H. virescens eggs.
The compounds were formulated using a solution containing 75% v/v water and 25% v/v DMSO. Different concentrations of formulated compounds were sprayed onto the insect diet at 10 μl, using a custom built micro atomizer, at two replications.
(§1) After application, microtiter plates were incubated at about 28±1° C. and about 80±5% relative humidity for 5 days. Egg and larval mortality was then visually assessed.

[5] = tested on: Boll Weevil (Anthonomus grandis); test: Boll weevil insect diet test; conditions: 120 h, read-out: mortality in comparison with untreated controls
Procedure: B.5 Boll Weevil (Anthonomus grandis)
For evaluating control of boll weevil (Anthonomus grandis) the test unit consisted of 96-well-microtiter plates containing an insect diet and 5-10 A. grandis eggs.
(§2) The compounds were formulated using a solution containing 75% v/v water and 25% v/v DMSO. Different concentrations of formulated compounds were sprayed onto the insect diet at 5 μl, using a custom built micro atomizer, at two replications.
After application, microtiter plates were incubated at about 25±1° C. and about 75±5% relative humidity for 5 days. Egg and larval mortality was then visually assessed.

[6] = tested on: Mediterranean Fruitfly (Ceratitis capitata); test: Mediterranean fruitfly insect diet test; conditions: 120 h, read-out: mortality in comparison with untreated controls
Procedure: B.6 Mediterranean Fruitfly (Ceratitis capitata)
as §2, with “For evaluating control of Mediterranean fruitfly (Ceratitis capitata) the test unit consisted of microtiter plates containing an insect diet and 50-80 C. capitata eggs. The” for “The”
as §1

[7] = tested on: Orchid Thrips (Dichromothrips corbetti); test: Orchid thrips floral-immersion test; conditions: 72 h, read-out: mortality in comparison with untreated controls
Procedure: B.7 Orchid Thrips (Dichromothrips corbetti)
Dichromothrips corbetti adults used for bioassay were obtained from a colony maintained continuously under laboratory conditions. For testing purposes, the test compound is diluted in a 1:1 mixture of acetone:water (vol:vol), plus Kinetic HV at a rate of 0.01% v/v.
Thrips potency of each compound was evaluated by using a floral-immersion technique. All petals of individual, intact orchid flowers were dipped into treatment solution and allowed to dry in Petri dishes. Treated petals were placed into individual re-sealable plastic along with about 20 adult thrips. All test arenas were held under continuous light and a temperature of about 28° C. for duration of the assay. After 3 days, the numbers of live thrips were counted on each petal. The percent mortality was recorded 72 hours after treatment.

[8] = tested on: Rice Green Leafhopper (Nephotettix virescens); test: Rice green leafhopper sprayed rice seedling test; conditions: 72 h, read-out: mortality in comparison with untreated controls
Procedure: B.8 Rice Green Leafhopper (Nephotettix virescens)
Rice seedlings were cleaned and washed 24 hours before spraying. The active compounds were formulated in 1:1 acetone:water (vol:vol), and 0.01% vol/vol surfactant (Kinetic HV) was added. Potted rice seedlings were sprayed with 5-6 ml test solution, air dried, covered with Mylar cages and inoculated with 10 adults. Treated rice plants were kept at about 28-29° C. and relative humidity of about 50-60%. Percent mortality was recorded after 72 hours.

[9] = tested on: Red Spider Mite (Tetranychus kanzawai); test: Red spider mite sprayed cowpea bean test; conditions: 72 h, read-out: mortality in comparison with untreated controls
Procedure: B.9 Red Spider Mite (Tetranychus kanzawai)
The active compound was dissolved at the desired concentration in a mixture of 1:1 (vol:vol) distilled water: acetone. Add surfactant (Kinetic HV) was added at a rate of 0.01% (vol/vol).The test solution was prepared at the day of use.
Potted cowpea beans of 4-5 days of age were cleaned with tap water and sprayed with 1-2 ml of the test solution using air driven hand atomizer. The treated plants were allowed to air dry and afterwards inoculated with 30 or more mites by clipping a cassava leaf section from rearing population. Treated plants were placed inside a holding room at about 25-27° C. and about 50-60% relative humidity. Percent mortality was assessed 72 hours after treatment.

[10] = tested on: Southern Armyworm (Spodoptera eridania); test: Southern armyworm sprayed lima bean test; conditions: 96 h, read-out: mortality in comparison with untreated controls
Procedure: B.10 Southern Armyworm (Spodoptera eridania)
The active compounds were formulated in cyclohexanone as a 10,000 ppm solution supplied in tubes. The tubes were inserted into an automated electrostatic sprayer equipped with an atomizing nozzle and they served as stock solutions for which lower dilutions were made in 50% acetone:50% water (v/v). A nonionic surfactant (Kinetic®) was included in the solution at a volume of 0.01% (v/v).
Lima bean plants (variety Sieva) were grown 2 plants to a pot and selected for treatment at the 1st true leaf stage. Test solutions were sprayed onto the foliage by an automated electrostatic plant sprayer equipped with an atomizing spray nozzle. The plants were dried in the sprayer fume hood and then removed from the sprayer. Each pot was placed into perforated plastic bags with a zip closure. About 10 to 11 armyworm larvae were placed into the bag and the bags zipped closed. Test plants were maintained in a growth room at about 25° C. and about 20-40% relative humidity for 4 days, avoiding direct exposure to fluorescent light (24 hour photoperiod) to prevent trapping of heat inside the bags. Mortality and reduced feeding were assessed 4 days after treatment, compared to untreated control plants.

[11] = tested on: Green Soldier Stink Bug (Nezara viridula); test: Green soldier stink bug soybean pod spray test; conditions: 120 h, read-out: mortality in comparison with untreated controls
Procedure: B.11 Green Soldier Stink Bug (Nezara viridula)
(§3) The active compound was dissolved at the desired concentration in a mixture of 1:1 (vol:vol) distilled water: acetone. Surfactant (Kinetic HV) was added at a rate of 0.01% (vol/vol).The test solution was prepared at the day of use.
Soybean pods were placed in glass Petri dishes lined with moist filter paper and inoculated with ten late 3rd instar N. viridula. Using a hand atomizer, approximately 2 ml solution is sprayed into each Petri dish. Assay arenas were kept at about 25° C. Percent mortality was recorded after 5 days.

[12] = tested on: Neotropical Brown Stink Bug (Euschistus heros); test: Neotropical brown stink bug soybean pod spray test; conditions: 120 h, adults on soybean pods, sprayed, after 5 days, read-out: mortality in comparison with untreated controls
Procedure: B.12 Neotropical Brown Stink Bug (Euschistus heros)
as §3
Soybean pods were placed in microwavable plastic cups and inoculated with ten adult stage E. heros. Using a hand atomizer, approximately 1 ml solution is sprayed into each cup, insects and food present. A water source was provided (cotton wick with water). Each treatment was replicated 2-fold. Assay arenas were kept at about 25° C. Percent mortality was recorded after 5 days.

[13] = 2500 ppm, egg and larval mortality on sprayed insect diet, 5 days

CC(=O)NCc1ccc(C2=NOC(c3cc(Cl)c(F)c(Cl)c3)(C(F)(F)F)C2)c2c1CCC2 (stereo not drawn) [Compound 1-4, N-[[7-[5-(3,5-Dichloro-4-fluoro-phenyl)-5-(trifluoromethyl)-4H-isoxazol-3-yl]indan-4-yl]methyl]acetamide]
≥ 75%: mortality at 300 ppm ([1]; in Brassica oleracea, 72 h) | mortality at 2500 ppm [2] | mortality at 2500 ppm [3] | mortality at 2500 ppm [4] | mortality at 2500 ppm [5] | mortality at 2500 ppm [6] | mortality at 300 ppm [7] | mortality at 300 ppm [8] | mortality at 300 ppm [9] | mortality at 10 ppm [10] | mortality at 300 ppm [11] | mortality at 100 ppm [12]

O=C(NCC(F)(F)F)N/N=C/c1ccc(C2=NOC(c3cc(Cl)c(F)c(Cl)c3)(C(F)(F)F)C2)c2c1CCC2 (stereo not drawn) [Compound 2-3, 1-[(E)-[7-[5-(3,5-Dichloro-4-fluoro-phenyl)-5-(trifluoromethyl)-4H-isoxazol-3-yl]indan-4-yl]methyleneamino]-3-(2,2,2-trifluoroethyl)urea]
≥ 75%: mortality at 300 ppm ([1]; in Brassica oleracea, 72 h) | mortality at 2500 ppm [2] | mortality at 2500 ppm [3] | mortality at 2500 ppm [4] | mortality at 2500 ppm [5] | mortality at 2500 ppm [6] | mortality at 300 ppm [7] | mortality at 300 ppm [9]

O=C(NCC(F)(F)F)N/N=C/c1ccc(C2=NCC(c3cc(Cl)cc(Cl)c3)(C(F)(F)F)C2)c2c1CCC2 (stereo not drawn) [Compound 3-1, 1-[(E)-[7-[3-(3,5-Dichlorophenyl)-3-(trifluoromethyl)-2,4-dihydropyrrol-5-yl]indan-4-yl]methyleneamino]-3-(2,2,2-trifluoroethyl)urea]
≥ 75%: mortality at 300 ppm ([1]; 300 ppm, cabbage leaves dipped, 3rd instar larvae, 72 hours after treatment) | mortality at 2500 ppm ([2]; 2500 ppm, adult aphids on treated artificial diet, 3 days) | mortality at 2500 ppm ([3]; 2500 ppm, adult aphids on sprayed broad bean leaf disks, 5 days) | mortality at 2500 ppm [4, 13] | mortality at 2500 ppm [5, 13] | mortality at 2500 ppm [6, 13] | mortality at 10 ppm ([10]; 10 ppm, larvae on sprayed lima bean plants, 4 days after treatment)

Fc1c(Cl)cc(C2(C(F)(F)F)CC(c3ccc(-n4cncn4)c4c3CCC4)=NO2)cc1Cl (stereo not drawn) [Compound 4-1, 5-(3,5-Dichloro-4-fluoro-phenyl)-3-[7-(1,2,4-triazol-1-yl)indan-4-yl]-5-(trifluoromethyl)-4H-isoxazole]
≥ 75%: mortality at 300 ppm ([1]; in Brassica oleracea, 72 h) | mortality at 300 ppm [7] | mortality at 300 ppm [8]
